One data set concerns the target human MAT2A enzyme (Homo sapiens (Human), UniProt P31153). In words: In vitro enzymatic inhibition activity assay on MAT2A (PiColorLock phosphate detection). Format: biochemical. The conditions noted are these: purified human MAT2A 10 nM, ATP 50 μM, L-methionine 100 μM, 6 h at 23° C.; read-out: MAT2A inhibitory activity IC50. Put shortly: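 IC50 came from an 8-point, 10-fold compound series that reduced phosphate release, measured by absorbance at 630 nm. Reactions ran 6 h at 23 °C with 10 nM human MAT2A, 50 μM ATP and 100 μM L-methionine in pH 7.5 Tris buffer containing Mg2+.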

Data set [1] is described as follows: In vivo pharmacokinetic study in CD-1 mice. The conditions noted are these: male, mouse, single oral gavage dose of 10 mg/kg, plasma. As to the method: In vivo pharmacokinetic study in CD-1 mice
Twenty-four healthy adult male mice from Beijing Vital River Laboratory Animal Technology Co., Ltd. were used in the study.
CD-1 mice were administered with a single oral gavage dose of 10 mg/kg in a volume of 10 mL/kg at a concentration of 1 mg/mL.
The test article in this project is generally suspended in 0.5% hydroxypropylmethyl cellulose, 0.1% Tween 80 (W/V/V) aqueous solution at the concentration of 1 mg/mL.
Animals dosed by gavage were fasted overnight before the experiment from 16 h before dosing to 4 h after dosing. Blood was collected at 0.25, 0.5, 1, 2, 4, 6, 8, and 24 h after administration successively. The animals were lightly anesthetized with isoflurane. About 0.2 mL of whole blood was collected from the orbital venous plexus using a glass blood collection tube and placed in a sodium heparin anticoagulant tube. The sample was centrifuged at 5200 rpm for 5 min at 4° C. The plasma was transferred to a centrifuge tube and stored at −80° C. until analysis.
Analysis of plasma samples Test compounds and internal standards (warfarin or propranolol) were extracted from mouse plasma using an acetonitrile protein precipitation method and the extracts were analyzed by LC/MS/MS. The measured plasma concentration-time data of individual animals were analyzed using the non-compartmental model of WinNonlin (version 5.2.1, Pharsight) software to obtain the corresponding pharmacokinetic parameters: maximum (peak) plasma drug concentration Cmax; Time to peak Tmax; Half-life T1/2 and area under the plasma concentration-time curve extrapolated to infinite time AUC0-inf.

The next data set relates to HCT116 MTAP−/− cells. In words: Inhibition of proliferation of HCT116 MTAP-/- cells (Cell-Titer Glo, 7 days). It is filed as cell-based. Particulars: Homo sapiens, HCT-116, 168 h (7 days) incubation, read-out: HCT116 MTAP−/− antiproliferative activity IC50. As to the method: The MTAP deficient human colorectal cancer cell line HCT116 MTAP−/− was constructed using CRJSPR Cas9 technology and cultured in DMEM medium supplemented with 10% fetal bovine serum (FBS, purchased from Gibco) and 1% penicillin/streptomycin (P/S, purchased from Thermo Fisher Scientific) at 37° C. with 5% CO2. HCT116 MTAP−/− cells were plated in 96 well plates (#3917, purchased from CORNING) at a concentration of 200 cells/195 μL/well. After 24 h, the compounds were diluted in a 3-fold gradient starting at 10 mM with 100% DMSO (for a total of 10 concentrations), then 4 μL of each concentration was added to 96 μL of serum-free DMEM medium for dilution. 5 μL of diluted compound at each concentration was added to the plated cell suspension and the compound was incubated with the cells for 168 h (7 days) in a cell culture incubator. The medium was then removed and 25 μL of Cell-Titer Glo® (G7570, purchased from Promega) reagent was added. Chemiluminescence values were read on a BMG and data were processed using GraphPad Prism software to calculate IC50 values for inhibition of cell proliferation by the compounds.

12 compounds from patent publication US20250221979A1, “NOVEL HETEROCYCLIC COMPOUND” (SHOUYAO HOLDINGS (BEIJING) CO., LTD., priority 2022, published 2025) can be followed below.

The structures appear in SMILES notation. pIC50: −log10 of the molar value.

Chain of human MAT2A enzyme (P31153 whole entry): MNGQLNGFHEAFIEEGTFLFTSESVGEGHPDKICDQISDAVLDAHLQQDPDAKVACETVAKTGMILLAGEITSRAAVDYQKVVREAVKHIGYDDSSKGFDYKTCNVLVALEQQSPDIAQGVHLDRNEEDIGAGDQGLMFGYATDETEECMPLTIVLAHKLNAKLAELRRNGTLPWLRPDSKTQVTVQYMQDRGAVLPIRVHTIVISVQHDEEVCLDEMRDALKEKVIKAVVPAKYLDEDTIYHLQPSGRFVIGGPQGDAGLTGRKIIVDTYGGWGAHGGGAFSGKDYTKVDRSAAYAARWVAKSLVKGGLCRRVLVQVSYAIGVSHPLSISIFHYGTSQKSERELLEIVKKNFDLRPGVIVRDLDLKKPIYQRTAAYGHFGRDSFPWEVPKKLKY

Take `COC(=O)c1c(N)c2ccc(Br)cc2n(-c2ccc(N)cc2)c1=O` [Example 147, methyl 4-amino-1-(4-aminophenyl)-7-bromo-2-oxo-1,2-dihydroquinoline-3-carboxylate]: the pIC50 at human MAT2A enzyme is 9.11. In addition, in data set [1], the exposure (AUC) was determined as 24100 ng·h/mL, the Cmax was found to be 2320 ng/mL, the Tmax is 1.67 h and the half-life is 8.44 h. Further, the pIC50 in the data set on HCT116 MTAP−/− cells is 7.09.

Turning to `COC(=O)c1c(N)c2ccc(C(F)(F)F)nc2n(-c2cccc3cnccc23)c1=O` [Example 174, methyl 4-amino-1-(isoquinolin-5-yl)-2-oxo-7-(trifluoromethyl)-1,2-dihydro-1,8-naphthyridine-3-carboxylate], the pIC50 at human MAT2A enzyme was 8.29. For the same compound, in data set [1], the AUC is 24500 ng·h/mL, the highest level (Cmax) was 9540 ng/mL, the Tmax came to 0.5 h and the half-life is 3.08 h. Also, the pIC50 with HCT116 MTAP−/− cells was 7.10.

For `COC(=O)c1c(N)c2ccc(I)cc2n(-c2cccc3cnccc23)c1=O` [Example 199, methyl 4-amino-7-iodo-1-(isoquinolin-5-yl)-2-oxo-1,2-dihydroquinoline-3-carboxylate], the pIC50 on human MAT2A enzyme is 8.45. Moreover, in data set [1], the AUC was 24600 ng·h/mL, the Cmax came to 4270 ng/mL, the Tmax is 2.5 h and the half-life was 2.98 h. Also, the pIC50 with HCT116 MTAP−/− cells is 7.31.

On to `COC(=O)c1c(N)c2ccc(C(F)(F)F)nc2n(-c2ccc(Cl)nc2)c1=O` [Example 203, methyl 4-amino-1-(6-chloropyridin-3-yl)-2-oxo-7-(trifluoromethyl)-1,2-dihydro-1,8-naphthyridine-3-carboxylate], for which the pIC50 at human MAT2A enzyme was 8.90; in the data set with HCT116 MTAP−/− cells, 7.60.

As for `COC(=O)c1c(N)c2ccc(Br)cc2n(-c2cccc3cnccc23)c1=O` [Example 154, methyl 4-amino-7-bromo-1-(isoquinolin-5-yl)-2-oxo-1,2-dihydroquinoline-3-carboxylate], the pIC50 is 8.52 at human MAT2A enzyme and 7.45 in the data set with HCT116 MTAP−/− cells.

Take `COC(=O)c1c(N)c2ccc(I)cc2n(-c2ccc(N)cc2)c1=O` [Example 252, methyl 4-amino-1-(4-aminophenyl)-7-iodo-2-oxo-1,2-dihydro quinoline-3-carboxylate]: the figures for the pIC50 on human MAT2A enzyme and with HCT116 MTAP−/− cells were 9.85 and 7.85, respectively.

For `COC(=O)c1c(N)c2ccc(Br)nc2n(-c2ccc3ccncc3c2)c1=O` [Example 244, methyl 4-amino-7-bromo-1-(isoquinolin-7-yl)-2-oxo-1,2-dihydro-1,8-naphthyridine-3-carboxylate], the pIC50 at human MAT2A enzyme was 9.07; in the data set with HCT116 MTAP−/− cells, 7.33.

Take `COC(=O)c1c(N)c2ccc(Br)nc2n(-c2cccc3c(Cl)nccc23)c1=O` [Example 240, methyl 4-amino-1-(1-chloroisoquinolin-5-yl)-7-bromo-2-oxo-1,2-dihydro-1,8-naphthyridine-3-carboxylate]: the pIC50 was 8.76 at human MAT2A enzyme and 7.21 in the data set on HCT116 MTAP−/− cells.

For the compound `COC(=O)c1c(N)c2ccc(C(F)(F)F)nc2n(-c2ccc(Cl)cc2)c1=O` [Example 173, methyl 4-amino-1-(4-chlorophenyl)-2-oxo-7-(trifluoromethyl)-1,2-dihydro-1,8-naphthyridine-3-carboxylate], the pIC50 on human MAT2A enzyme is 8.93; in the data set on HCT116 MTAP−/− cells, 7.51.

In the case of `COC(=O)c1c(N)c2ccc(Br)cc2n(-c2ccc(C(C)O)cc2)c1=O` (stereo not drawn) [Example 200, methyl 4-amino-7-bromo-1-(4-(1-hydroxyethyl)phenyl)-2-oxo-1,2-dihydro quinoline-3-carboxylate], the pIC50 on human MAT2A enzyme is 8.79; in the data set with HCT116 MTAP−/− cells it was 7.63.

In the case of `COC(=O)c1c(N)c2ccc(C(F)(F)F)nc2n(-c2ccc(OC)nc2)c1=O` [Example 208, methyl 4-amino-1-(6-methoxypyridin-3-yl)-2-oxo-7-(trifluoromethyl)-1,2-dihydro-1,8-naphthyridine-3-carboxylate], the pIC50 on human MAT2A enzyme was 8.39; in the data set on HCT116 MTAP−/− cells, 7.15.

In the case of `COC(=O)c1c(N)c2ccc(C(F)(F)F)cc2n(-c2ccc(C(C)O)cc2)c1=O` (stereo not drawn) [Example 122, methyl 4-amino-1-(4-(1-hydroxyethyl)phenyl)-2-oxo-7-(trifluoromethyl)-1,2-dihydroquinoline-3-carboxylate], the pIC50 at human MAT2A enzyme was 8.66; in the data set on HCT116 MTAP−/− cells, 7.30.
